Article PMC7766220, “Design, Synthesis and Comprehensive Investigations of Pyrrolo[3,4-d]pyridazinone-Based 1,3,4-Oxadiazole as New Class of Selective COX-2 Inhibitors” (International Journal of Molecular Sciences, 2020)

Key:
[1] = molecular target: T1, Bovine Serum Albumin (BSA) (Bos taurus, UniProt P02769); assay: intrinsic fluorescence quenching, excitation […] nm; assay type: binding; details: 294 K, pH 7.4, no site marker, double-log
T1 construct: gene ALB

COX-2 = molecular target: T2, COX-2 (Homo sapiens, UniProt P35354); assay: colorimetric COX peroxidase assay, […] nm (Cayman […]); assay type: biochemical; details: read-out: Cyclooxygenase Inhibition Assay IC50 [μM] / COX-2
T2 construct: gene PTGS2; docking used 4M11
T2 sequence (P35354 18-604): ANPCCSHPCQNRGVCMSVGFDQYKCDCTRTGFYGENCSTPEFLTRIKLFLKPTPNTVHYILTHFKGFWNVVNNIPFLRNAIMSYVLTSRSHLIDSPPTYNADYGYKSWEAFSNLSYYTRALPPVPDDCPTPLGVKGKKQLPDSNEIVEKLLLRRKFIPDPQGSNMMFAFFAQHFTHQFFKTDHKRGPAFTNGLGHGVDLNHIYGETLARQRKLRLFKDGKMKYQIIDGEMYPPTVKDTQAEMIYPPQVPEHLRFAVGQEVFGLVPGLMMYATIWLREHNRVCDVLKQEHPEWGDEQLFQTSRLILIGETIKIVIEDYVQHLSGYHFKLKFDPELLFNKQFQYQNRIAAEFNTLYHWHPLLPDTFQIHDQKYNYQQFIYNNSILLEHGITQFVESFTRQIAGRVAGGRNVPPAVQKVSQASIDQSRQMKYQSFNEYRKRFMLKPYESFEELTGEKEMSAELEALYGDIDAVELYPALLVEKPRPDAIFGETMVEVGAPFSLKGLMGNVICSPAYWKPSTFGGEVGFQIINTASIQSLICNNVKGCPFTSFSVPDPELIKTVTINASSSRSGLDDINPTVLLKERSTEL

[2] = unreliable (Table 5 rows of 5a and 5b are identical, likely a copying error)

T1 sequence (P02769 25-607): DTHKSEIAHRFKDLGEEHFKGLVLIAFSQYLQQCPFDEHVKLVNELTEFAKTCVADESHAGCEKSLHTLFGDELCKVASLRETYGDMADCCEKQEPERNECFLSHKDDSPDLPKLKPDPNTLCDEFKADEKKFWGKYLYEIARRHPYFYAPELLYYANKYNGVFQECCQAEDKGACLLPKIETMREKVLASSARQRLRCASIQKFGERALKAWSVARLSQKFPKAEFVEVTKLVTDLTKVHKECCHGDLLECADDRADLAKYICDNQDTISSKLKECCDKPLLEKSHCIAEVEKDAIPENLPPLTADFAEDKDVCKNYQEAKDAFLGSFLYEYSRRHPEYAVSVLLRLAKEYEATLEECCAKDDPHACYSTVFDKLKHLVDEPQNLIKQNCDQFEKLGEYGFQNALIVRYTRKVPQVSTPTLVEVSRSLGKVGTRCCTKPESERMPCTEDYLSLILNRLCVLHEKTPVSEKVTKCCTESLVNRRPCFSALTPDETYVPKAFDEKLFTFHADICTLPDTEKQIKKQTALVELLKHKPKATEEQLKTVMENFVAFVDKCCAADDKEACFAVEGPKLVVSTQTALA

Row | Binding / Kb × 10^4 [dm^3.mol^-1] [1, 2] | IC50 (COX-2) [µM] | Binding / Kb × 10^4 [dm^3.mol^-1] [1] | Compound
1 | 12.30 × 10^4 dm^3·mol^−1 | 659 |  | Cc1c2c(OCc3nnc(SCC(=O)N4CCN(c5ccccc5)CC4)o3)nn(C)c(=O)c2c(C)n1-c1ccccc1 [5a, 3,5,7-trimethyl-1-[[2-[2-oxo-2-(4-phenylpiperazin-1-yl)ethyl]sulfanyl-1,3,4-oxadiazol-5-yl]methoxy]-6-phenyl-pyrrolo[3,4-d]pyridazin-4-one]
2 | 12.30 × 10^4 dm^3·mol^−1 | 257 |  | CCCCn1c(C)c2c(OCc3nnc(SCC(=O)N4CCN(c5ccccc5)CC4)o3)nn(C)c(=O)c2c1C [5b, 6-butyl-3,5,7-trimethyl-1-[[2-[2-oxo-2-(4-phenylpiperazin-1-yl)ethyl]sulfanyl-1,3,4-oxadiazol-5-yl]methoxy]pyrrolo[3,4-d]pyridazin-4-one]
3 |  | 160 | 7.24 × 10^4 dm^3·mol^−1 | Cc1c2c(OCc3nnc(SCC(=O)N4CCN(c5ncccn5)CC4)o3)nn(C)c(=O)c2c(C)n1-c1ccccc1 [6a, 3,5,7-trimethyl-1-[[2-[2-oxo-2-(4-pyrimidin-2-ylpiperazin-1-yl)ethyl]sulfanyl-1,3,4-oxadiazol-5-yl]methoxy]-6-phenyl-pyrrolo[3,4-d]pyridazin-4-one]
4 |  | 371 | 8.51 × 10^4 dm^3·mol^−1 | CCCCn1c(C)c2c(OCc3nnc(SCC(=O)N4CCN(c5ncccn5)CC4)o3)nn(C)c(=O)c2c1C [6b, 6-butyl-3,5,7-trimethyl-1-[[2-[2-oxo-2-(4-pyrimidin-2-ylpiperazin-1-yl)ethyl]sulfanyl-1,3,4-oxadiazol-5-yl]methoxy]pyrrolo[3,4-d]pyridazin-4-one]
